ChEMBL document CHEMBL4813910, “Curse or Cure? A Perspective on the Developability of Aldehydes as Active Pharmaceutical Ingredients” (J Med Chem, 2020)
Blank lines part the entries; values can stand above or below the compound they belong to.

Assays:
[1] = Cmax in human at 20 mg/kg, po measured up to 30 hrs by HPLC method; assay type: ADME, organism-based; design: route oral, dose 20 mg/kg, time <=30; settings: in vivo
[2] = Cmax in human at 40 mg, po BID cotreated with paclitaxel by HPLC method; assay type: ADME, organism-based; design: route oral, dose 40 mg; settings: in vivo
[3] = Cmax in human at 20 mg, po measured up to 240 hrs by HPLC method; assay type: ADME, organism-based; design: route oral, dose 20 mg, time <=240; settings: in vivo
[4] = AUC (0 to infinity) in human at 20 mg/kg, po measured up to 30 hrs by HPLC method; assay type: ADME, organism-based; design: route oral, dose 20 mg/kg, time <=30; settings: in vivo
[5] = Tmax in human at 20 mg, po measured up to 240 hrs by HPLC method; assay type: ADME, organism-based; settings: in vivo
[6] = Half life in human at 20 mg/kg, po measured up to 240 hrs by HPLC method; assay type: ADME, organism-based; settings: in vivo
[7] = Half life in human at 20 mg/kg, po measured up to 30 hrs by HPLC method; assay type: ADME, organism-based; settings: in vivo
[8] = Clearance in human at 40 mg, po BID cotreated with paclitaxel by HPLC method; assay type: ADME, organism-based; settings: in vivo
[9] = Half life in mouse plasma at 5 ug/ml incubated for 1 to 24 hrs by LC/MS/MS method; assay type: ADME, cell-free; settings: time 1-24 hrs, dose 5 µg/ml
[10] = Protein binding in human plasma; assay type: ADME, cell-free
[11] = Half life in human at 40 mg, po BID cotreated with paclitaxel by HPLC method; assay type: ADME, organism-based; settings: in vivo
[12] = Half life in human plasma at 5 ug/ml incubated for 1 to 24 hrs by LC/MS/MS method; assay type: ADME, cell-free; settings: time 1-24 hrs, dose 5 µg/ml
[13] = Clearance in dog at 0.5 mg/kg, iv by HPLC method; assay type: ADME, organism-based, Canis lupus familiaris; settings: in vivo
[14] = Half life in dog plasma at 5 ug/ml incubated for 1 to 24 hrs by LC/MS/MS method; assay type: ADME, cell-free, Canis lupus familiaris; settings: time 1-24 hrs, dose 5 µg/ml
[15] = AUC (0 to infinity) in human at 20 mg, po measured up to 240 hrs by HPLC method; assay type: ADME, organism-based; design: route oral, dose 20 mg, time <=240; settings: in vivo
[16] = Tmax in human at 20 mg/kg, po measured up to 30 hrs by HPLC method; assay type: ADME, organism-based; settings: in vivo
[17] = AUC (0 to 10 hrs) in human at 40 mg, po BID cotreated with paclitaxel by HPLC method; assay type: ADME, organism-based; design: time < 10 hr, route oral, dose 40 mg; settings: in vivo
[18] = Drug metabolism in human assessed as pyridoxal-5-phosphate Tmax at 3.36 mg, po; assay type: ADME; settings: in vivo
[19] = Drug excretion in human assessed as time of maximum urinary excretion of pyridoxic-acid at 3.36 mg, po; assay type: ADME; settings: in vivo
[20] = Drug metabolism in human assessed as pyridoxal-5-phosphate Cmax at 3.36 mg, po; assay type: ADME; design: route oral, dose 3.36 mg; settings: in vivo
[21] = Drug excretion in human urine assessed as maximum urinary excretion of pyridoxic-acid at 3.36 mg, po; assay type: ADME, tissue-based; settings: in vivo
[22] = Drug excretion in human urine at 3.36 mg, po measured within 24 hrs; assay type: ADME, organism-based; settings: in vivo
[23] = Cmax in human at 3.36 mg, po measured for 7 days; assay type: ADME, organism-based; design: route oral, time 7 day, dose 3.36 mg; settings: in vivo
[24] = Tmax in human at 3.36 mg, po; assay type: ADME; settings: in vivo
[25] = Drug metabolism in human assessed as pyridoxal-5-phosphate Tmax at 4 mg, po; assay type: ADME; settings: in vivo
[26] = Drug excretion in human urine at 4 mg, po measured within 24 hrs; assay type: ADME, organism-based; settings: in vivo
[27] = Drug excretion in human urine assessed as maximum urinary excretion of pyridoxic-acid at 4 mg, po; assay type: ADME; settings: in vivo, 24 h
[28] = Tmax in human at 4 mg, po; assay type: ADME; settings: in vivo
[29] = Drug metabolism in human assessed as pyridoxal-5-phosphate Cmax at 4 mg, po; assay type: ADME; design: route oral, dose 4 mg; settings: in vivo
[30] = Drug excretion in human urine assessed as time of maximum urinary excretion of pyridoxic-acid at 4 mg, po; assay type: ADME, tissue-based; settings: in vivo
[31] = Cmax in human at 4 mg, po; assay type: ADME; design: route oral, dose 4 mg; settings: in vivo
[32] = Bioavailability in human at 20 mpk, IM; assay type: ADME, organism-based; settings: in vivo, dose 20 mg/kg
[33] = Volume of distribution at steady state in human at 20 mg/kg, IM; assay type: ADME, organism-based; settings: in vivo
[34] = Half life in human at 20 mg/kg, IM; assay type: ADME, organism-based; settings: in vivo
[35] = Protein binding in human plasma at 20 mg/kg, IM; assay type: ADME, organism-based; settings: read-out: PPB (converted)
[36] = Renal clearance in human at 20 mg/kg, IM; assay type: ADME, organism-based; settings: in vivo
[37] = Cmax in human at 20 mg/kg, IM; assay type: ADME, organism-based; design: route […], dose 20 mg/kg; settings: in vivo
[38] = Tmax in human at 20 mg/kg, IM; assay type: ADME, organism-based; settings: in vivo
[39] = Drug excretion in human at 20 mg/kg, IM measured for 24 hrs; assay type: ADME, organism-based; settings: in vivo, read-out: Drug excretion

Structure (SMILES): Cc1cc2c(C(C)C)c(O)c(O)c(C=O)c2c(O)c1-c1c(C)cc2c(C(C)C)c(O)c(O)c(C=O)c2c1O [GOSSYPOL]
Cmax [1]: 799 nM | Cmax [2]: 1270 nM | Cmax [3]: 1750 nM | AUC(0-inf) [4]: 6.08 µM·h | Tmax [5]: 4.6 h | half-life [6]: 133 h | half-life [7]: 4.55 h | CL/F [8]: 2.5 mL/min/kg | half-life at 5 ug/ml [9]: < 1 h | PPB [10]: 63% | fraction unbound ([10]; read-out: PPB (converted)): 0.61 | half-life [11]: 3.33 h | half-life at 5 ug/ml [12]: < 1 h | clearance [13]: 0.833 mL/min/kg | CL ([13]; 0.5 mg/kg): 0.83 mL/min/kg | half-life at 5 ug/ml [14]: < 1 h | AUC(0-inf) [15]: 29.2 µM·h | Tmax [16]: 4.6 h | AUC at 10 h [17]: 6.81 µM·h

Tmax [18]: 1 h | Time [19]: 1 h | Cmax [20]: 18 nM | Drug excretion [21]: 1.6 µmol/h | Drug excretion [22]: 1.2 µmol | Cmax [23]: 280 nM | Tmax [24]: 0.5 h
Structure (SMILES): Cc1ncc(CO)c(C=O)c1O [PYRIDOXAL]

Tmax [25]: 3 h | Drug excretion [26]: 1.5 µmol | Drug excretion [27]: 0.7 µmol/h | Tmax [28]: 1 h | Cmax [29]: 30 nM | Time [30]: 3 h | Cmax [31]: 60 nM
Structure (SMILES): Cc1ncc(CO)c(CO)c1O [PYRIDOXINE]

bioavailability [32]: 80% | Vdss [33]: 1.77 L/kg | half-life [34]: 5.3 h | fraction unbound [35]: 0.52 | CL renal [36]: 30 mL/min | Cmax [37]: 43000 nM | Tmax [38]: 0.5 h | dose excreted at 24 h [39]: 39%
Structure (SMILES): [H]/N=C(/N)N[C@H]1[C@H](O)[C@@H](O)[C@H](O[C@@H]2O[C@@H](C)[C@](O)(C=O)[C@H]2O[C@@H]2O[C@@H](CO)[C@H](O)[C@@H](O)[C@@H]2NC)[C@@H](N/C(N)=N\[H])[C@@H]1O [STREPTOMYCIN]
